Measured values taken from PubChem BioAssay (NCI).
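GI50 = concentration required for 50% inhibition of growth. TGI: total growth inhibition.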

How the values were obtained:
Test in all cases: DTP human tumour cell line panel, 384-well format
786-0 renal = tested on: 786-0 renal
A498 renal = tested on: A498 renal
A549 NSCLC = tested on: A549 NSCLC
ACHN renal = tested on: ACHN renal
BT-549 breast = tested on: BT-549 breast
CAKI-1 renal = tested on: CAKI-1 renal
CCRF-CEM leukemia = tested on: CCRF-CEM leukemia
COLO 205 colon = tested on: COLO 205 colon
DU-145 prostate = tested on: DU-145 prostate
HCC-2998 colon = tested on: HCC-2998 colon
HCT-116 colon = tested on: HCT-116 colon
HCT-15 colon = tested on: HCT-15 colon
HL-60(TB) leukemia = tested on: HL-60(TB) leukemia
HOP-62 NSCLC = tested on: HOP-62 NSCLC
HOP-92 NSCLC = tested on: HOP-92 NSCLC
HT29 colon = tested on: HT29 colon
IGROV1 ovarian = tested on: IGROV1 ovarian
K-562 leukemia = tested on: K-562 leukemia
KM12 colon = tested on: KM12 colon
LOX IMVI melanoma = tested on: LOX IMVI melanoma
M14 melanoma = tested on: M14 melanoma
MALME-3M melanoma = tested on: MALME-3M melanoma
MCF7 breast = tested on: MCF7 breast
MDA-MB-231 breast = tested on: MDA-MB-231 breast
MDA-MB-435 melanoma = tested on: MDA-MB-435 melanoma
MDA-MB-468 breast = tested on: MDA-MB-468 breast
MOLT-4 leukemia = tested on: MOLT-4 leukemia
NCI-H226 lung = tested on: NCI-H226 lung
NCI-H23 lung = tested on: NCI-H23 lung
NCI-H322M lung = tested on: NCI-H322M lung
NCI-H460 NSCLC = tested on: NCI-H460 NSCLC
NCI-H522 lung = tested on: NCI-H522 lung
NCI/ADR-RES ovarian = tested on: NCI/ADR-RES ovarian
OVCAR-3 ovarian = tested on: OVCAR-3 ovarian
OVCAR-4 ovarian = tested on: OVCAR-4 ovarian
OVCAR-5 ovarian = tested on: OVCAR-5 ovarian
OVCAR-8 ovarian = tested on: OVCAR-8 ovarian
PC-3 prostate = tested on: PC-3 prostate
RXF 393 renal = tested on: RXF 393 renal
SF-268 CNS = tested on: SF-268 CNS
SF-295 CNS = tested on: SF-295 CNS
SF-539 CNS = tested on: SF-539 CNS
SK-MEL-2 melanoma = tested on: SK-MEL-2 melanoma
SK-MEL-28 melanoma = tested on: SK-MEL-28 melanoma
SK-MEL-5 melanoma = tested on: SK-MEL-5 melanoma
SK-OV-3 ovarian = tested on: SK-OV-3 ovarian
SN12C renal = tested on: SN12C renal
SNB-19 CNS = tested on: SNB-19 CNS
SR leukemia = tested on: SR leukemia
SW-620 colon = tested on: SW-620 colon
T-47D breast = tested on: T-47D breast
TK-10 renal = tested on: TK-10 renal
U251 glioblastoma = tested on: U251 glioblastoma
UACC-257 melanoma = tested on: UACC-257 melanoma
UACC-62 melanoma = tested on: UACC-62 melanoma
UO-31 renal = tested on: UO-31 renal

Cc1c2c(nn1C)CSCc1cc(n(C)n1)CSc1cc(c3ccccc3c1)OCCCc1c(C(=O)O)n(C)c3c-2c(Cl)ccc13
GI50 ([…]-0 renal): 3.06 µM | TGI (786-0 renal): 11.5 µM | GI50 (A498 renal): 3.69 µM | TGI (A498 renal): 14.1 µM | GI50 (A549 NSCLC): 3.94 µM | TGI (A549 NSCLC): 15.1 µM | GI50 (ACHN renal): 4.09 µM | TGI (ACHN renal): 15.9 µM | GI50 (BT-549 breast): 1.62 µM | TGI (BT-549 breast): 4.58 µM | GI50 (CAKI-1 renal): 5.74 µM | TGI (CAKI-1 renal): 18.2 µM | GI50 (CCRF-CEM leukemia): 0.631 µM | TGI (CCRF-CEM leukemia): 2.33 µM | GI50 (COLO 205 colon): 5.21 µM | TGI (COLO 205 colon): 17.3 µM | GI50 (DU-145 prostate): 2.98 µM | TGI (DU-145 prostate): 8.97 µM | GI50 (HCC-2998 colon): 1.11 µM | TGI (HCC-2998 colon): 3.94 µM | GI50 (HCT-116 colon): 2.41 µM | TGI (HCT-116 colon): 6.04 µM | GI50 (HCT-15 colon): 4.49 µM | TGI (HCT-15 colon): 15.5 µM | GI50 (HL-60(TB) leukemia): 0.0122 µM | TGI (HL-60(TB) leukemia): 0.0248 µM | GI50 (HOP-62 NSCLC): 2.41 µM | TGI (HOP-62 NSCLC): 10.6 µM | GI50 (HOP-92 NSCLC): 2.08 µM | TGI (HOP-92 NSCLC): 5.64 µM | GI50 (HT29 colon): 3.49 µM | TGI (HT29 colon): 11.3 µM | GI50 (IGROV1 ovarian): 2.85 µM | TGI (IGROV1 ovarian): 10.9 µM | GI50 (K-562 leukemia): 3.78 µM | TGI (K-562 leukemia): 13.1 µM | GI50 (KM12 colon): 2.13 µM | TGI (KM12 colon): 5.14 µM | GI50 (LOX IMVI melanoma): 3.01 µM | TGI (LOX IMVI melanoma): 10.1 µM | GI50 (M14 melanoma): 2.8 µM | TGI (M14 melanoma): 8.79 µM | GI50 (MALME-3M melanoma): 1.76 µM | TGI (MALME-3M melanoma): 4.45 µM | GI50 (MCF7 breast): 0.336 µM | TGI (MCF7 breast): 2.75 µM | GI50 (MDA-MB-231 breast): 6.22 µM | TGI (MDA-MB-231 breast): 18.5 µM | GI50 (MDA-MB-435 melanoma): 1.01 µM | TGI (MDA-MB-435 melanoma): 13.2 µM | GI50 (MDA-MB-468 breast): 0.126 µM | TGI (MDA-MB-468 breast): 0.581 µM | GI50 (MOLT-4 leukemia): 0.0856 µM | TGI (MOLT-4 leukemia): 0.236 µM | GI50 (NCI-H226 lung): 2.59 µM | TGI (NCI-H226 lung): 7.4 µM | GI50 (NCI-H23 lung): 0.185 µM | TGI (NCI-H23 lung): 0.861 µM | GI50 (NCI-H322M lung): 8.43 µM | TGI (NCI-H322M lung): 20.8 µM | GI50 (NCI-H460 NSCLC): 1.96 µM | TGI (NCI-H460 NSCLC): 4.68 µM | GI50 (NCI-H522 lung): 0.0686 µM | TGI (NCI-H522 lung): 0.581 µM | GI50 (NCI/ADR-RES ovarian): 12 µM | TGI (NCI/ADR-RES ovarian): 24.4 µM | GI50 (OVCAR-3 ovarian): 1.76 µM | TGI (OVCAR-3 ovarian): 3.69 µM | GI50 (OVCAR-4 ovarian): 0.459 µM | TGI (OVCAR-4 ovarian): 3.54 µM | GI50 (OVCAR-5 ovarian): 3.99 µM | TGI (OVCAR-5 ovarian): 14 µM | GI50 (OVCAR-8 ovarian): 4.01 µM | TGI (OVCAR-8 ovarian): 15.3 µM | GI50 (PC-3 prostate): 3.04 µM | TGI (PC-3 prostate): 9.02 µM | GI50 (RXF 393 renal): 0.375 µM | TGI (RXF 393 renal): 2.13 µM | GI50 (SF-268 CNS): 3.04 µM | TGI (SF-268 CNS): 11.9 µM | GI50 (SF-295 CNS): 1.85 µM | TGI (SF-295 CNS): 4.23 µM | GI50 (SF-539 CNS): 1.74 µM | TGI (SF-539 CNS): 4.35 µM | GI50 (SK-MEL-2 melanoma): 0.0454 µM | TGI (SK-MEL-2 melanoma): 0.189 µM | GI50 (SK-MEL-28 melanoma): 2.51 µM | TGI (SK-MEL-28 melanoma): 7.44 µM | GI50 (SK-MEL-5 melanoma): 1.23 µM | TGI (SK-MEL-5 melanoma): 2.69 µM | GI50 (SK-OV-3 ovarian): 6.18 µM | TGI (SK-OV-3 ovarian): 19.2 µM | GI50 (SN12C renal): 3.4 µM | TGI (SN12C renal): 13.4 µM | GI50 (SNB-19 CNS): 3.5 µM | TGI (SNB-19 CNS): 12 µM | GI50 (SR leukemia): 0.0157 µM | TGI (SR leukemia): 0.0329 µM | GI50 (SW-620 colon): 3.96 µM | TGI (SW-620 colon): 13.6 µM | GI50 (T-47D breast): 2.3 µM | TGI (T-47D breast): 8.32 µM | GI50 (TK-10 renal): 3.3 µM | TGI (TK-10 renal): 12.7 µM | GI50 (U251 glioblastoma): 2.35 µM | TGI (U251 glioblastoma): 4.92 µM | GI50 (UACC-257 melanoma): 2.59 µM | TGI (UACC-257 melanoma): 9.27 µM | GI50 (UACC-62 melanoma): 0.134 µM | TGI (UACC-62 melanoma): 0.349 µM | GI50 (UO-31 renal): 3.82 µM | TGI (UO-31 renal): 14.6 µM
